Results published in ChEMBL document CHEMBL3046455, “Synthesis and pharmacological evaluation of some novel 4-isopropyl thiazole-based sulfonyl derivatives as potent antimicrobial and antitubercular agents” (Med Chem Res, 2013).
In brackets after ≈: the same amount, converted by molar mass.

How the values were obtained:
Saccharomyces cerevisiae = assay: Antifungal activity against Saccharomyces cerevisiae ATCC 9763 after 24 hr by broth microdilution method; type: functional; details: ATCC 9763, 24 h
Klebsiella pneumoniae = assay: Antibacterial activity against Klebsiella pneumoniae ATCC 10031 after 24 hr by broth microdilution method; type: functional; details: ATCC 10031, 24 h
Pseudomonas aeruginosa = assay: Antibacterial activity against Pseudomonas aeruginosa ATCC 10145 after 24 hr by broth microdilution method; type: functional; details: ATCC 10145, 24 h
Escherichia coli = assay: Antibacterial activity against Escherichia coli ATCC 10536 after 24 hr by broth microdilution method; type: functional; details: ATCC 10536, 24 h
Aspergillus niger = assay: Antifungal activity against Aspergillus niger ATCC 6275 after 24 hr by broth microdilution method; type: functional; details: ATCC 6275, 24 h
[1] = system: Mycobacterium tuberculosis; assay: Antitubercular activity against Mycobacterium tuberculosis H37Rv after 21 days by broth microdilution method; type: functional; details: 504 h
Bacillus subtilis = assay: Antibacterial activity against Bacillus subtilis ATCC 60511 after 24 hr by broth microdilution method; type: functional; details: ATCC 60511, 24 h
Enterococcus faecalis = assay: Antibacterial activity against Enterococcus faecalis ATCC 14506 after 24 hr by broth microdilution method; type: functional; details: ATCC 14506, 24 h
Candida tropicalis = assay: Antifungal activity against Candida tropicalis ATCC 1369 after 24 hr by broth microdilution method; type: functional; details: ATCC 1369, 24 h
Staphylococcus aureus = assay: Antibacterial activity against Staphylococcus aureus ATCC 11632 after 24 hr by broth microdilution method; type: functional; details: ATCC 11632, 24 h
A549 = assay: Cytotoxicity against Homo sapiens (human) A549 cells at […] by MTT assay relative to control; type: cell-based

| Structure (SMILES) | MIC (Saccharomyces cerevisiae) | MIC (Klebsiella pneumoniae) | MIC (Pseudomonas aeruginosa) | MIC (Escherichia coli) | MIC (Aspergillus niger) | MIC [1] | MIC (Bacillus subtilis) | MIC (Enterococcus faecalis) | MIC (Candida tropicalis) | MIC (Staphylococcus aureus) | Activity (A549) |
| --- | --- | --- | --- | --- | --- | --- | --- | --- | --- | --- | --- |
| CC(C)c1csc(-c2nnc(S(=O)(=O)Cc3ccc(Br)cc3)n2/N=C/c2ccc(F)cc2)n1 | 31.2 µg/mL (≈ 57 µM) | 8 µg/mL (≈ 14.6 µM) | 62.5 µg/mL (≈ 114 µM) | 8 µg/mL (≈ 14.6 µM) | 125 µg/mL (≈ 228 µM) | 8 µg/mL (≈ 14.6 µM) | 8 µg/mL (≈ 14.6 µM) | 62.5 µg/mL (≈ 114 µM) | 31.2 µg/mL (≈ 57 µM) | 62.5 µg/mL (≈ 114 µM) |  |
| CC(C)c1csc(-c2nnc(S(=O)(=O)Cc3ccc(Br)cc3F)n2/N=C/c2ccc(Cl)cc2)n1 | 16 µg/mL (≈ 27.4 µM) | 31.2 µg/mL (≈ 53.6 µM) | 16 µg/mL (≈ 27.4 µM) | 62.5 µg/mL (≈ 107 µM) | 8 µg/mL (≈ 13.7 µM) | 8 µg/mL (≈ 13.7 µM) | 8 µg/mL (≈ 13.7 µM) | 31.2 µg/mL (≈ 53.6 µM) | 8 µg/mL (≈ 13.7 µM) | 31.2 µg/mL (≈ 53.6 µM) |  |
| CC(C)c1csc(-c2nnc(S(=O)(=O)Cc3ccc(Cl)cc3)n2/N=C/c2ccc(Cl)cc2)n1 | 16 µg/mL (≈ 30.7 µM) | 31.2 µg/mL (≈ 60 µM) | 8 µg/mL (≈ 15.4 µM) | 62.5 µg/mL (≈ 120 µM) | 8 µg/mL (≈ 15.4 µM) | 8 µg/mL (≈ 15.4 µM) | 31.2 µg/mL (≈ 60 µM) | 8 µg/mL (≈ 15.4 µM) | 8 µg/mL (≈ 15.4 µM) | 8 µg/mL (≈ 15.4 µM) |  |
| CC(C)c1csc(-c2nnc(S(=O)(=O)Cc3ccccc3)n2/N=C/c2c(F)cccc2F)n1 | 8 µg/mL (≈ 16.4 µM) | 31.2 µg/mL (≈ 64.1 µM) | 4 µg/mL (≈ 8.2 µM) | 31.2 µg/mL (≈ 64.1 µM) | 8 µg/mL (≈ 16.4 µM) | 4 µg/mL (≈ 8.2 µM) | 62.5 µg/mL (≈ 128 µM) | 8 µg/mL (≈ 16.4 µM) | 16 µg/mL (≈ 32.8 µM) | 4 µg/mL (≈ 8.2 µM) |  |
| CC(C)c1csc(-c2nnc(S(=O)(=O)Cc3ccc(Cl)cc3)o2)n1 | 8 µg/mL (≈ 20.8 µM) | 8 µg/mL (≈ 20.8 µM) | 8 µg/mL (≈ 20.8 µM) | 4 µg/mL (≈ 10.4 µM) | 16 µg/mL (≈ 41.7 µM) | 4 µg/mL (≈ 10.4 µM) | 8 µg/mL (≈ 20.8 µM) | 31.2 µg/mL (≈ 81.4 µM) | 8 µg/mL (≈ 20.8 µM) | 16 µg/mL (≈ 41.7 µM) |  |
| CC(C)c1csc(-c2nnc(S(=O)(=O)Cc3ccc(Br)cc3)o2)n1 | 62.5 µg/mL (≈ 146 µM) | 8 µg/mL (≈ 18.7 µM) | 8 µg/mL (≈ 18.7 µM) | 4 µg/mL (≈ 9.34 µM) | 31.2 µg/mL (≈ 73 µM) | 4 µg/mL (≈ 9.34 µM) | 31.2 µg/mL (≈ 73 µM) | 31.2 µg/mL (≈ 73 µM) | 31.2 µg/mL (≈ 73 µM) | 8 µg/mL (≈ 18.7 µM) |  |
| CC(C)c1csc(-c2nnc(S(=O)(=O)Cc3ccccc3C(F)(F)F)o2)n1 | 8 µg/mL (≈ 19.2 µM) | 2 µg/mL (≈ 4.79 µM) | 4 µg/mL (≈ 9.58 µM) | 8 µg/mL (≈ 19.2 µM) | 125 µg/mL (≈ 299 µM) | 2 µg/mL (≈ 4.79 µM) | 31.2 µg/mL (≈ 74.9 µM) | 16 µg/mL (≈ 38.3 µM) | 31.2 µg/mL (≈ 74.9 µM) | 8 µg/mL (≈ 19.2 µM) | 50% |
| CC(C)c1csc(-c2nnc(S(=O)(=O)Cc3ccccc3)o2)n1 | 4 µg/mL (≈ 11.4 µM) | 8 µg/mL (≈ 22.9 µM) | 8 µg/mL (≈ 22.9 µM) | 8 µg/mL (≈ 22.9 µM) | 16 µg/mL (≈ 45.8 µM) | 4 µg/mL (≈ 11.4 µM) | 31.2 µg/mL (≈ 89.4 µM) | 16 µg/mL (≈ 45.8 µM) | 8 µg/mL (≈ 22.9 µM) | 62.5 µg/mL (≈ 179 µM) |  |
| CC(C)c1csc(-c2nnc(S(=O)(=O)Cc3cc(Cl)ccc3F)o2)n1 | 16 µg/mL (≈ 39.8 µM) | 4 µg/mL (≈ 9.95 µM) | 4 µg/mL (≈ 9.95 µM) | 8 µg/mL (≈ 19.9 µM) | 8 µg/mL (≈ 19.9 µM) | 4 µg/mL (≈ 9.95 µM) | 8 µg/mL (≈ 19.9 µM) | 31.2 µg/mL (≈ 77.8 µM) | 8 µg/mL (≈ 19.9 µM) | 8 µg/mL (≈ 19.9 µM) |  |
| CC(C)c1csc(-c2nnc(S(=O)(=O)Cc3ccc(Br)cc3F)n2-c2ccccc2)n1 | 16 µg/mL (≈ 30.7 µM) | 16 µg/mL (≈ 30.7 µM) | 16 µg/mL (≈ 30.7 µM) | 8 µg/mL (≈ 15.3 µM) | 16 µg/mL (≈ 30.7 µM) | 8 µg/mL (≈ 15.3 µM) | 16 µg/mL (≈ 30.7 µM) | 31.2 µg/mL (≈ 59.9 µM) | 31.2 µg/mL (≈ 59.9 µM) | 31.2 µg/mL (≈ 59.9 µM) |  |
| CC(C)c1csc(-c2nnc(S(=O)(=O)Cc3ccc(C(F)(F)F)cc3)n2-c2ccccc2)n1 | 16 µg/mL (≈ 32.5 µM) | 16 µg/mL (≈ 32.5 µM) | 16 µg/mL (≈ 32.5 µM) | 16 µg/mL (≈ 32.5 µM) | 16 µg/mL (≈ 32.5 µM) | 4 µg/mL (≈ 8.12 µM) | 8 µg/mL (≈ 16.2 µM) | 8 µg/mL (≈ 16.2 µM) | 31.2 µg/mL (≈ 63.4 µM) | 4 µg/mL (≈ 8.12 µM) |  |
| CC(C)c1csc(-c2nnc(S(=O)(=O)Cc3ccc(Br)cc3)n2-c2ccccc2)n1 | 16 µg/mL (≈ 31.8 µM) | 16 µg/mL (≈ 31.8 µM) | 8 µg/mL (≈ 15.9 µM) | 16 µg/mL (≈ 31.8 µM) | 16 µg/mL (≈ 31.8 µM) | 8 µg/mL (≈ 15.9 µM) | 16 µg/mL (≈ 31.8 µM) | 16 µg/mL (≈ 31.8 µM) | 16 µg/mL (≈ 31.8 µM) | 8 µg/mL (≈ 15.9 µM) |  |
| CC(C)c1csc(-c2nnc(S(=O)(=O)Cc3cc(Cl)ccc3F)n2-c2ccccc2)n1 | 16 µg/mL (≈ 33.5 µM) | 8 µg/mL (≈ 16.8 µM) | 8 µg/mL (≈ 16.8 µM) | 4 µg/mL (≈ 8.39 µM) | 31.2 µg/mL (≈ 65.5 µM) | 4 µg/mL (≈ 8.39 µM) | 31.2 µg/mL (≈ 65.5 µM) | 31.2 µg/mL (≈ 65.5 µM) | 16 µg/mL (≈ 33.5 µM) | 16 µg/mL (≈ 33.5 µM) |  |
| CC(C)c1csc(-c2nnc(S(=O)(=O)Cc3ccc(Br)cc3F)n2/N=C/c2c(F)cccc2F)n1 | 16 µg/mL (≈ 27.4 µM) | 31.2 µg/mL (≈ 53.5 µM) | 8 µg/mL (≈ 13.7 µM) | 16 µg/mL (≈ 27.4 µM) | 16 µg/mL (≈ 27.4 µM) | 8 µg/mL (≈ 13.7 µM) | 16 µg/mL (≈ 27.4 µM) | 31.2 µg/mL (≈ 53.5 µM) | 16 µg/mL (≈ 27.4 µM) | 31.2 µg/mL (≈ 53.5 µM) |  |
| CC(C)c1csc(-c2nnc(S(=O)(=O)Cc3ccc(Cl)cc3)n2/N=C/c2c(F)cccc2F)n1 | 62.5 µg/mL (≈ 120 µM) | 31.2 µg/mL (≈ 59.9 µM) | 62.5 µg/mL (≈ 120 µM) | 8 µg/mL (≈ 15.3 µM) | 31.2 µg/mL (≈ 59.9 µM) | 8 µg/mL (≈ 15.3 µM) | 8 µg/mL (≈ 15.3 µM) | 31.2 µg/mL (≈ 59.9 µM) | 16 µg/mL (≈ 30.7 µM) | 31.2 µg/mL (≈ 59.9 µM) |  |
| CC(C)c1csc(-c2nnc(S(=O)(=O)Cc3ccc(Br)cc3)n2/N=C/c2c(F)cccc2F)n1 | 62.5 µg/mL (≈ 110 µM) | 8 µg/mL (≈ 14.1 µM) | 8 µg/mL (≈ 14.1 µM) | 8 µg/mL (≈ 14.1 µM) | 8 µg/mL (≈ 14.1 µM) | 8 µg/mL (≈ 14.1 µM) | 16 µg/mL (≈ 28.2 µM) | 16 µg/mL (≈ 28.2 µM) | 8 µg/mL (≈ 14.1 µM) | 31.2 µg/mL (≈ 55.2 µM) |  |
| CC(C)c1csc(-c2nnc(S(=O)(=O)Cc3ccc(Br)cc3F)n2/N=C/c2ccc(F)cc2)n1 | 31.2 µg/mL (≈ 55.2 µM) | 8 µg/mL (≈ 14.1 µM) | 62.5 µg/mL (≈ 110 µM) | 8 µg/mL (≈ 14.1 µM) | 31.2 µg/mL (≈ 55.2 µM) | 16 µg/mL (≈ 28.2 µM) | 31.2 µg/mL (≈ 55.2 µM) | 31.2 µg/mL (≈ 55.2 µM) | 31.2 µg/mL (≈ 55.2 µM) | 16 µg/mL (≈ 28.2 µM) |  |
| CC(C)c1csc(-c2nnc(S(=O)(=O)Cc3ccc(Cl)cc3)n2/N=C/c2ccc(F)cc2)n1 | 31.2 µg/mL (≈ 62 µM) | 31.2 µg/mL (≈ 62 µM) | 16 µg/mL (≈ 31.7 µM) | 16 µg/mL (≈ 31.7 µM) | 31.2 µg/mL (≈ 62 µM) | 8 µg/mL (≈ 15.9 µM) | 4 µg/mL (≈ 7.94 µM) | 4 µg/mL (≈ 7.94 µM) | 31.2 µg/mL (≈ 62 µM) | 8 µg/mL (≈ 15.9 µM) |  |
| O=C(O)c1cn(C2CC2)c2cc(N3CCNCC3)c(F)cc2c1=O [CIPROFLOXACIN] |  | ≤ 1 µg/mL | ≤ 5 µg/mL | ≤ 1 µg/mL |  |  | ≤ 1 µg/mL | ≤ 5 µg/mL |  | ≤ 5 µg/mL |  |
| OC(Cn1cncn1)(Cn1cncn1)c1ccc(F)cc1F [FLUCONAZOLE] | ≤ 1 µg/mL |  |  |  | ≤ 1 µg/mL |  |  |  | ≤ 1 µg/mL |  |  |
| NNC(=O)c1ccncc1 [ISONIAZID] |  |  |  |  |  | 0.25 µg/mL (≈ 1.82 µM) |  |  |  |  |  |
| CCn1cc(C(=O)O)c(=O)c2cc(F)c(N3CCNCC3)cc21 [NORFLOXACIN] |  | ≤ 1 µg/mL | ≤ 5 µg/mL | ≤ 1 µg/mL |  |  | ≤ 1 µg/mL | ≤ 5 µg/mL |  | ≤ 5 µg/mL |  |
